{
  "source": "paper PMC4058769",
  "about": "(Organic & biomolecular chemistry, 2009)",
  "assay_type_in_all_cases": "cell-based",
  "key": {"[1]": {"system": "PC-3 cells (prostate cancer)", "assay": "in vitro cytotoxic assay, PC-3"}, "K-562 (human leukaemia)": {"system": "K-562 (human leukaemia)", "assay": "antiproliferative assay, K-562"}, "[2]": {"system": "L-929 (mouse fibroblasts)", "assay": "antiproliferative assay, L-929"}, "[3]": {"system": "MCF-7 cells (breast cancer)", "assay": "in vitro cytotoxic assay, MCF-7"}, "[4]": {"system": "HeLa (human cervix carcinoma)", "assay": "cytotoxicity assay, HeLa"}},
  "data": [
    {"smiles": "CCC(=O)O[C@H]1[C@H](C)O[C@@H](O[C@H]2[C@H](N(C)C)[C@@H](O)[C@H](O[C@H]3[C@@H](CC=O)C[C@@H](C)[C@@H](O)/C=C/C=C/C[C@@H](C)OC(=O)C[C@@H](O)[C@@H]3OC)O[C@@H]2C)C[C@@]1(C)O", "note": "[compound 1, leucomycin A7]", "values": [
      {"measurement": "cytotoxic activity in PC-3 (in words)", "setting": "[1]", "value": "not active at all"},
      {"measurement": "antiproliferative activity in K-562 (in words)", "setting": "K-562 (human leukaemia)", "value": "not active at all"},
      {"measurement": "GI50", "setting": "K-562 (human leukaemia); read-out: K-562 GI50, antiproliferative activity, K-562 human leukaemia", "value": "> 66", "unit": "µM"},
      {"measurement": "antiproliferative activity in L-929 (in words)", "setting": "[2]", "value": "not active at all"},
      {"measurement": "GI50", "setting": "[2]; read-out: L-929 GI50, antiproliferative activity, L-929 mouse fibroblasts", "value": "> 66", "unit": "µM"},
      {"measurement": "cytotoxic activity in MCF-7 (in words)", "setting": "[3]", "value": "not active at all"},
      {"measurement": "cytotoxic activity in HeLa (in words)", "setting": "[4]", "value": "not active at all"},
      {"measurement": "CC50", "setting": "[4]; read-out: HeLa CC50, cytotoxicity, HeLa human cervix carcinoma", "value": "> 66", "unit": "µM"}
    ]}
  ]
}
